Measured values reported in PubChem BioAssay AID2060488 (Molecular Pharmacology Branch, DTP, NCI, 2025).

Test system: 966289-007-R4-J1-PDC complex spheroid viability
Assay: Anticancer human tumor 966289-007-R4-J1-PDC patient-derived pancreatic adenocarcinoma cell line growth inhibition [GQUAD]
Conditions: for IC50: curve of first compound; for viability, T/C: stronger effect = lower value
How it was run: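 Viability of tumor cells grown as complex spheroids with endothelial and stromal cells, exposed to drug combinations. Top concentration at or near clinical Cmax (else 10 microM), diluted in half-log increments.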
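Also: spheroids exposed to the agents for seven days before readout.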
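For viability, T/C in this document: percent viability relative to DMSO vehicle control wells taken as 100%.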

C=CC(=O)N1CCN(c2nc(=O)n(-c3c(C)ccnc3C(C)C)c3nc(-c4c(O)cccc4F)c(F)cc23)C(C)C1 (configuration not stated) + Cc1cnc(CNC(=O)c2c(=O)c3ccc(N4CCCN(C)CC4)nc3n3c2sc2ccccc23)cn1
IC50 (second compound 0.0316 µM): > 10000 nM | IC50 (second compound 0.1 µM): < 31.6 nM | IC50 (second compound 0.316 µM): < 31.6 nM | IC50 (second compound 1 µM): < 31.6 nM | IC50 (second compound 3.16 µM): < 31.6 nM | IC50 (second compound 10 µM): < 31.6 nM | viability, T/C (second compound 0.0316 µM, first compound 0.0316 µM): 109% | viability, T/C (second compound 0.0316 µM, first compound 0.1 µM): 102% | viability, T/C (second compound 0.0316 µM, first compound 0.316 µM): 112% | viability, T/C (second compound 0.0316 µM, first compound 1 µM): 98% | viability, T/C (second compound 0.0316 µM, first compound 3.16 µM): 103% | viability, T/C (second compound 0.0316 µM, first compound 10 µM): 88.2% | viability, T/C (second compound 0.1 µM, first compound 0.0316 µM): 31.1% | viability, T/C (second compound 0.1 µM, first compound 0.1 µM): 37.4% | viability, T/C (second compound 0.1 µM, first compound 0.316 µM): 37.1% | viability, T/C (second compound 0.1 µM, first compound 1 µM): 31.9% | viability, T/C (second compound 0.1 µM, first compound 3.16 µM): 37% | viability, T/C (second compound 0.1 µM, first compound 10 µM): 25.3% | viability, T/C (second compound 0.316 µM, first compound 0.0316 µM): 11.3% | viability, T/C (second compound 0.316 µM, first compound 0.1 µM): 12.7% | viability, T/C (second compound 0.316 µM, first compound 0.316 µM): 11.5% | viability, T/C (second compound 0.316 µM, first compound 1 µM): 12.2% | viability, T/C (second compound 0.316 µM, first compound 3.16 µM): 13.4% | viability, T/C (second compound 0.316 µM, first compound 10 µM): 10.3% | viability, T/C (second compound 1 µM, first compound 0.0316 µM): 7.08% | viability, T/C (second compound 1 µM, first compound 0.1 µM): 5.8% | viability, T/C (second compound 1 µM, first compound 0.316 µM): 5.81% | viability, T/C (second compound 1 µM, first compound 1 µM): 6.58% | viability, T/C (second compound 1 µM, first compound 3.16 µM): 9.48% | viability, T/C (second compound 1 µM, first compound 10 µM): 9.07% | viability, T/C (second compound 3.16 µM, first compound 0.0316 µM): 4.85% | viability, T/C (second compound 3.16 µM, first compound 0.1 µM): 4.57% | viability, T/C (second compound 3.16 µM, first compound 0.316 µM): 5.54% | viability, T/C (second compound 3.16 µM, first compound 1 µM): 5.93% | viability, T/C (second compound 3.16 µM, first compound 3.16 µM): 7.14% | viability, T/C (second compound 3.16 µM, first compound 10 µM): 8.52% | viability, T/C (second compound 10 µM, first compound 0.0316 µM): 0.11% | viability, T/C (second compound 10 µM, first compound 0.1 µM): 0.14% | viability, T/C (second compound 10 µM, first compound 0.316 µM): 0.14% | viability, T/C (second compound 10 µM, first compound 1 µM): 0.16% | viability, T/C (second compound 10 µM, first compound 3.16 µM): 2.33% | viability, T/C (second compound 10 µM, first compound 10 µM): 0.13%
